Results from patent US10723716B2, “Alpha-helix mimetics as modulators of Abeta self-assembly” (New York University, priority 2016, dated 2020).
Entries after “also recorded” stand apart in the source; their conditions may differ.

Legend:
Neuro-2a cells = experiment: Effect of compound alone on Neuro-2a cell viability; type: cell-based, mouse; conditions: matched cytotoxic experimental conditions, no Aβ42
Procedure: To investigate the toxic effect of the peptide alone on cell viability, solution (B) without the oligopyridylamide compound was mixed with solution (A), while the effect of the oligopyridylamide compound alone was determined by adding solution (A) without peptide to solution (B). The effect of oligopyridylamides on seed-catalyzed Aβ42 aggregation was probed by preparing an additional solution (C) containing 0.5 μM seeds. The volume contributed by solution (C) was taken into account in preparing solution (B). Solution (C) was mixed with solution (B), and the resulting mixture was then added to solution (A) shortly before addition to the wells. To study the effect of oligopyridylamides on the oligomeric states of Aβ42, solution (A) was mixed with solution (B) without inhibitor and incubated at room temperature for 1, 2 or 3 h. Subsequently, 50 μM oligopyridylamides was added to the mixture, which was then immediately added to the cells. […] The MTS reagent was incubated for 2.5 h at 37° C., and absorbance of the soluble formazan product (λ=490 nm) of MTS reduction was measured on a Synergy H1MF Multi-Mode microplate-reader (BioTek, Winooski, Vt., USA), with a reference wavelength of 650 nm to subtract the background. Wells treated with a solution containing serum-free DMEM, 200 μM NaOH, 0.1×PBS and 0.5% (v/v) DMSO served as control. MTS reduction was determined from the ratio of the absorbance of the treated wells to the control wells. Each data point represents an average of four independent quadruplet-well trials.

[1] = tested on: Aβ42 mediated toxicity in mouse neuroblastoma (N2a) cells; experiment: Aβ42 mediated toxicity in Neuro-2a cells (MTS cell viability); type: cell-based; conditions: for rank order for the antagonist activity: Aβ42 mediated cytotoxicity and aggregation, 5 μM, 1:1 (FIG. 26a); for effect on Aβ42 mediated cytotoxicity: equimolar ratio, Neuro-2a cells
Procedure: Cell viability was determined using a CellTiter 96® AQueous One Solution Cell Proliferation Assay (MTS) kit (Promega), which measures the reduction of the tetrazolium compound MTS (3-(4,5-dimethylthiazol-2-yl)-5-(3-carboxymethoxyphenyl)-2-(4-sulfophenyl)-2H-tetrazolium, inner salt) to soluble formazan by mitochondrial dehydrogenase enzyme in living cells. Formazan can be measured at 490 nm according to the manufacturer's instructions.
Neuro-2a cells (ATCC® […]) were maintained in serum-containing media [Dulbecco's Modified Eagle's Medium—high glucose (DMEM, Sigma) supplemented with 10% foetal bovine serum (FBS), 4 mM L-Glutamine (Sigma), and 1% penicillin/streptomycin (Sigma)] in 5% CO2 at 37° C. Once the cells reached ˜95% confluence, they were split (using 0.25% trypsin-EDTA, Sigma, St. Louis, USA), seeded at a density of 5×10^3 cells/well in 100 μL complete medium in 96-well plates and cultured for 48 h. Thereafter, the media was removed, the cells washed with phosphate buffered saline (PBS), and 90 μL of serum-free DMEM was added to the wells. A solution (A) containing 50 μM Aβ42 in NaOH (pH 10.5) was prepared and kept on ice, and a solution (B) containing 50 μM of the oligopyridylamide compound, H2O (2.33 μL/well) and 1× and 10×PBS was prepared and kept at room temperature. The solutions were combined, vortexed and 10 μL of this solution immeadiatly added to each well. The final concentrations in the wells were: 5 μM Aβ42, 5 μM oligopyridylamide, 200 μM NaOH, 0.1×PBS and 0.5% (v/v) DMSO.
To investigate the toxic effect of the peptide alone on cell viability, solution (B) without the oligopyridylamide compound was mixed with solution (A), while the effect of the oligopyridylamide compound alone was determined by adding solution (A) without peptide to solution (B). The effect of oligopyridylamides on seed-catalyzed Aβ42 aggregation was probed by preparing an additional solution (C) containing 0.5 μM seeds. The volume contributed by solution (C) was taken into account in preparing solution (B). Solution (C) was mixed with solution (B), and the resulting mixture was then added to solution (A) shortly before addition to the wells. To study the effect of oligopyridylamides on the oligomeric states of Aβ42, solution (A) was mixed with solution (B) without inhibitor and incubated at room temperature for 1, 2 or 3 h. Subsequently, 50 μM oligopyridylamides was added to the mixture, which was then immediately added to the cells. After culturing for 72 h in 5% CO2 at 37° C., 20 μL of MTS reagent was added to each well. The MTS reagent was incubated for 2.5 h at 37° C., and absorbance of the soluble formazan product (λ=490 nm) of MTS reduction was measured on a Synergy H1MF Multi-Mode microplate-reader (BioTek, Winooski, Vt., USA), with a reference wavelength of 650 nm to subtract the background. Wells treated with a solution containing serum-free DMEM, 200 μM NaOH, 0.1×PBS and 0.5% (v/v) DMSO served as control. MTS reduction was determined from the ratio of the absorbance of the treated wells to the control wells. Each data point represents an average of four independent quadruplet-well trials.

Aβ42 [2] = molecular target: T1, Aβ42 (Homo sapiens, UniProt P05067); experiment: ThT-based kinetic assay of Aβ42 aggregation; type: biochemical; conditions: for factor by which Aβ42 aggregation is delayed (rel. t50): 20 μM Aβ42, equimolar ratio; for effect on Aβ42 oligomerization/fibrillation (ThT): equimolar ratio
T1 construct: Cleavage of APP results in several Aβ isoforms; The predominant species are Aβ42 and Aβ40; purchased Anaspec (Fremont, Calif., USA)
T1 sequence (P05067 672-713 limits assumed): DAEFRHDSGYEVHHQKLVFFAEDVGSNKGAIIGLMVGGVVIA
Excerpt: The aggregation of Aβ42 was monitored using an established exogenous dye, Thioflavin T (ThT) that intercalates between the amyloid fibers along the perpendicular axis without affecting the kinetics of amyloid formation. (see Wolfe, L. S.; Calabrese, M. F.; Nath, A.; Blaho, D. V.; Miranker, A. D.; Xiong, Y. Proc. Natl. Acad. Sci. U.S.A. 2010, 107, 16863-16868; Levine, H. Protein Sci. 1993, 2, 404-410). A representative ThT-based kinetic assay results are depicted in FIG. 2. The oligomerization reaction of Aβ42 was initiated by diluting a 1 mM stock solution of Aβ42 (in DMSO) to a concentration of 20 μM in phosphate buffer (150 mM KCl, 50 mM NaPi, pH 7.4). Aβ42 fibrillation is a nucleation-dependent polymerization process and is characterized by a sigmoidal curve consisting of a lag phase, an elongation phase, and a plateau phase (FIG. 2a). The kinetic reaction was quantified by extracting t50, which is the time required to reach 50% of the maximum fluorescence that results from fibrillation. Under standard conditions the tso for Aβ42 fibrillation was 2.1±0.2 h (FIG. 2a and FIG. 8).
(§1) Kinetic assays were conducted on a FlexStation 3 Multi-Mode Microplate reader from Molecular Devices (Sunnyvale, Calif., USA). Experiments were conducted in triplicate in a 96-well plate with a final volume of 200 μL per well. Every measurement was an average of 50 readings. The aggregation of an amyloidogenic peptide (Aβ40, Aβ42, or IAPP) was initiated by the addition of the peptide from a stock solution (in DMSO, 0.5-1 mM) to phosphate buffer. The final concentration of each peptide was different based on their aggregation. The stoichiometry of ThT dye for each peptide was 0.5:1 (ThT:peptide). Peptide aggregation was monitored by ThT fluorescence (λex=445 nm and λem=485 nm). The blank sample contained all the components of the peptide samples except the peptide. The sample data were processed by subtracting the fluorescence of the blank sample. The fluorescence intensity data was then normalized by setting the maximum value to 1.
(§2) Kinetic assays in the presence of the compounds of the invention were conducted under the same conditions. The small molecules were added from a stock solution (1 mM or 10 mM in DMSO) to keep the final concentration of DMSO less than 1.0% (v/v). Small molecules were added to the wells with ThT and buffer and mixed gently with a pipette before adding the peptide. To keep the conditions identical, an equal amount of DMSO was added to the wells with the peptide-only control reactions.
(§3) Kinetic profiles were processed using Origin (version 9.1). Kinetic curves were fit using the built-in sigmoidal fit. Each run was fit independently to extract the t50 (time required to reach 50% of the maximum fluorescence intensity). Error bars represent standard deviations from the mean of at least three independent experiments.
In the delayed addition experiments, where the oligopyridylamides were added at various time points during Aβ amyloid reaction, the conditions were same (as used for the assays where Aβ was preincubated with the oligopyridylamides). The Aβ oligomerization process was initiated by dissolving Aβ into buffer solution and then oligopyridylamides were added to this solution at indicated time points (depend on the assay) at an equimolar ratio.

[3] = tested on: IAPP mediated toxicity in rat INS-1 cells; experiment: IAPP mediated toxicity in INS-1 cells; type: cell-based; conditions: equimolar ratio, rat INS-1 cells
IAPP = molecular target: T2, IAPP (Homo sapiens, UniProt P10997); experiment: ThT-based kinetic assay of IAPP aggregation; type: biochemical; conditions: equimolar ratio (IAPP 10 μM, FIG. 25c, 26c, 27m)
T2 construct: purchased Anaspec (Fremont, Calif., USA)
T2 sequence (P10997 34-70 limits assumed): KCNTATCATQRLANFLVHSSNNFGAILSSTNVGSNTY
Procedure: as §1, §2, §3

Aβ42 [4] = molecular target: T1, Aβ42; experiment: ThT-based kinetic assay of Aβ42 aggregation; type: biochemical; conditions: 5 μM, 1:1 (Ligand:Aβ42); without ligand 100%

effect on Aβ42 oligomerization/fibrillation (ThT) (Aβ42 [2]) | Compound | toxicity of compound alone to Neuro-2a cells (Neuro-2a cells) | effect on Aβ42 mediated cytotoxicity [1] | further results
 | COC(=O)c1ccc(NC(=O)c2ccc(NC(=O)c3ccc([N+](=O)[O-])c(OCc4ccccc4)n3)c(OCC(=O)O)n2)c(OCC(=O)O)n1 [ADH-27] | not toxic |  | 
 | COC(=O)c1ccc(NC(=O)c2ccc(NC(=O)c3ccc([N+](=O)[O-])c(OCC(C)C)n3)c(OCCCN)n2)c(OCCCN)n1 [ADH-46] |  | effective at rescuing cells | rank order for the antagonist activity [1]: ADH41>ADH46>ADM-40≥ADM-45A
effective in blocking | COC(=O)c1ccc(NC(=O)c2ccc(NC(=O)c3ccc([N+](=O)[O-])c(OCCCN)n3)c(OCCCN)n2)c(OCCCN)n1 [ADH-19] |  |  | factor by which Aβ42 aggregation is delayed (rel. t50) (Aβ42 [2]): 3.2±0.3
 | CCCCCCOc1nc(C(=O)Nc2ccc(C(=O)Nc3ccc(C(=O)OC)nc3OCCCN)nc2OCc2ccccc2)ccc1[N+](=O)[O-] [ADH-52] | not toxic | effective at rescuing cells | 
 | COC(=O)c1ccc(NC(=O)c2ccc([N+](=O)[O-])c(OCCCN)n2)c(OCCCN)n1 [ADH-44] |  |  | factor by which Aβ42 aggregation is delayed (rel. t50) (Aβ42 [2]): 2.4±0.3
 | CCCCOc1nc(C(=O)Nc2ccc(C(=O)Nc3ccc(C(=O)OC)nc3OCCCN)nc2OCCCN)ccc1[N+](=O)[O-] [ADH-40] | not toxic |  | rank order for the antagonist activity [1]: ADH41>ADH46>ADM-40≥ADM-45A
accelerated | COC(=O)c1ccc(NC(=O)c2ccc(NC(=O)c3ccc([N+](=O)[O-])c(OC(C)C)n3)c(OCc3ccccc3)n2)c(OCCCN)n1 [ADH-39] | not toxic | effective at inhibiting cytotoxicity; also recorded: effective at rescuing cells; also recorded: equally effective | 
effective in blocking | COC(=O)c1ccc(NC(=O)c2ccc([N+](=O)[O-])c(OCc3ccccc3)n2)c(OCCCN)n1 [ADH-43] |  |  | factor by which Aβ42 aggregation is delayed (rel. t50) (Aβ42 [2]): 3.3±0.4
no effect | COC(=O)c1ccc(NC(=O)c2ccc(NC(=O)c3ccc([N+](=O)[O-])c(OCC(=O)O)n3)c(OCc3ccccc3)n2)c(OCC(=O)O)n1 [ADH-17] | not toxic | no effect | effect on IAPP mediated toxicity [3]: completely inhibits; effect on IAPP fibrillation / amyloid formation (ThT) (IAPP): completely inhibits
No noticeable effect | COC(=O)c1ccc([N+](=O)[O-])c(OCCCN)n1 [ADH-3] |  |  | 
 | CCOc1nc(C(=O)Nc2ccc(C(=O)Nc3ccc(C(=O)OC)nc3OCCCN)nc2OCCCN)ccc1[N+](=O)[O-] [ADH-45A] | not toxic |  | rank order for the antagonist activity [1]: ADH41>ADH46>ADM-40≥ADM-45A
No noticeable effect | COC(=O)c1ccc([N+](=O)[O-])c(OC2CCCCC2)n1 [ADH-5] |  |  | 
weak inhibitor | COC(=O)c1ccc(NC(=O)c2ccc(NC(=O)c3ccc([N+](=O)[O-])c(OCCCN)n3)c(OCc3ccccc3)n2)c(OCCCN)n1 [ADH-37] |  | did not have a noticeable effect | ThT fluorescence intensity of the amyloid reaction (Aβ42 [4]): 74%
